The species named for experiment [1] is Rattus norvegicus. The experiment can be described thus: Inhibition of alpha-glucosidase in rat everted intestinal sleeves assessed as reduction in blood glucose AUC (0-90) within intestinal sleeves at 0.5 mM. It counts as tissue-based. The conditions noted are these: Intestine, time min 0-90.
For experiment [2], the species on record is Mus musculus. In words: Hypoglycemic activity in Kunming mouse assessed as reduction in maltose-induced postprandial blood glucose level measured after 15 to 120 mins by maltose loading test. It counts as functional, organism-based. The conditions noted are these: time min 15-120.
For experiment [3], the species on record is Mus musculus. The experiment can be described thus: Hypoglycemic activity in Kunming mouse assessed as reduction in maltose-induced blood glucose AUC (0 to 120 mins) by maltose loading test. In kind it is functional, organism-based. The settings on record: time min 0-120.
For experiment [4], the species on record is Rattus norvegicus. In words: Inhibition of alpha-glucosidase in rat everted intestinal sleeves assessed as reduction in glucose concentration outside of the intestinal sleeves at 0.5 mM measured after 5 to 90 mins. It counts as tissue-based. The conditions noted are these: Intestine, time min 5-90.
The species entered for experiment [5] is Rattus norvegicus. The experiment can be described thus: Inhibition of alpha-glucosidase in rat everted intestinal sleeves assessed as reduction in blood glucose AUC (0-90) outside of the intestinal sleeves at 0.5 mM. It counts as tissue-based. The conditions noted are these: Intestine, time min 0-90.
For experiment [6], the species on record is Rattus norvegicus. In words: Inhibition of alpha-glucosidase in rat everted intestinal sleeves assessed as reduction in glucose concentration within intestinal sleeves at 0.5 mM measured for 5 to 90 mins. It counts as tissue-based. The conditions noted are these: Intestine, time min 5-90.
A short description of experiment [7]: Inhibition of alpha-glucosidase (unknown origin). More on the design: species or system Homo sapiens. The settings on record: read-out: IC50.
Experiment [8] is filed under the species Homo sapiens. In words: Binding affinity to alpha-glucosidase (unknown origin) assessed as destabilization of enzyme conformation by measuring induction of protein aggregation at 2.5 uM by atomic force microscopy.
The species entered for experiment [9] is Homo sapiens. In words: Binding affinity to alpha-glucosidase (unknown origin) assessed as change in gibbs free energy at 310 K by Van't Hoff equation analysis.
The species named for experiment [10] is Homo sapiens. The experiment can be described thus: Binding affinity to alpha-glucosidase (unknown origin) assessed as change in the microenvironment of tyrosine and tryptophan residues at 0.33 to 3.32 uM by fluorescence based Synchronous fluorescence spectroscopy. The conditions noted are these: dose microM 0.33-3.32.
Experiment [11] is filed under the species Homo sapiens. In words: Binding affinity to alpha-glucosidase (unknown origin) assessed as change in gibbs free energy at 304 K by Van't Hoff equation analysis.
Experiment [12] is filed under the species Homo sapiens. In words: Binding affinity to alpha-glucosidase (unknown origin) assessed as Stern-Volmer quenching constant at 304 K.
The species named for experiment [13] is Homo sapiens. The experiment can be described thus: Binding affinity to alpha-glucosidase (unknown origin) assessed as hydrogen bonding interactions by measuring change in entropy at 304 K by Van't Hoff equation analysis.
The species entered for experiment [14] is Homo sapiens. In words: Binding affinity to alpha-glucosidase (unknown origin) assessed as quenching constant at 310 K.
Experiment [15] is filed under the species Homo sapiens. The experiment can be described thus: Binding affinity to alpha-glucosidase (unknown origin) assessed as binding constant at 298 K.
The species named for experiment [16] is Homo sapiens. The experiment can be described thus: Binding affinity to alpha-glucosidase (unknown origin) assessed as decrease in fluorescence intensity of Trp residue without shift in maximum emission wavelength at 0.33-3.22 uM by fluorescence based Synchronous fluorescence spectroscopy. The settings on record: dose microM 0.33-3.22.
Experiment [17] is filed under the species Rattus norvegicus. In words: Inhibition of alpha-glucosidase in rat everted intestinal sleeves assessed as reduction in blood glucose AUC (0-90) within intestinal sleeves at 0.173 mM. The conditions noted are these: Intestine, time min 0-90. It counts as tissue-based.
The species named for experiment [18] is Homo sapiens. In words: Binding affinity to alpha-glucosidase (unknown origin) assessed as Stern-Volmer quenching constant at 298 K.
The species named for experiment [19] is Homo sapiens. The experiment can be described thus: Binding affinity to alpha-glucosidase (unknown origin) assessed as quenching constant at 298 K.
Experiment [20] is filed under the species Homo sapiens. The experiment can be described thus: Binding affinity to alpha-glucosidase (unknown origin) assessed as enzyme complexation with compound by measuring mean height of enzyme at 2.5 uM by atomic force microscopy (reference value: 0.87 nm).
The species named for experiment [21] is Homo sapiens. In words: Binding affinity to alpha-glucosidase (unknown origin) assessed as quenching constant at 304 K.
For experiment [22], the species on record is Homo sapiens. The experiment can be described thus: Binding affinity to alpha-glucosidase (unknown origin) assessed as binding constant at 304 K.
Experiment [23] is filed under the species Homo sapiens. In words: Binding affinity to alpha-glucosidase (unknown origin) assessed as fluorescence quenching at 0.33 to 3.66 uM by fluorescence spectral analysis. The conditions noted are these: dose microM 0.33-3.66.
For experiment [24], the species on record is Homo sapiens. The experiment can be described thus: Binding affinity to alpha-glucosidase (unknown origin) assessed as binding constant at 310 K.
For experiment [25], the species on record is Rattus norvegicus. The experiment can be described thus: Inhibition of alpha-glucosidase in rat everted intestinal sleeves assessed as reduction in glucose concentration outside of the intestinal sleeves at 0.173 mM measured after 5 to 90 mins. It counts as tissue-based. The conditions noted are these: Intestine, time min 5-90.
For experiment [26], the species on record is Rattus norvegicus. The experiment can be described thus: Inhibition of alpha-glucosidase in rat everted intestinal sleeves assessed as reduction in blood glucose AUC (0-90) outside of the intestinal sleeves at 0.173 mM. In kind it is tissue-based. The conditions noted are these: Intestine, time min 0-90.
The species named for experiment [27] is Homo sapiens. In words: Binding affinity to alpha-glucosidase (unknown origin) assessed as decrease in fluorescence intensity of Tyr residue without shift in maximum emission wavelength at 0.33 to 3.22 uM by fluorescence based Synchronous fluorescence spectroscopy. The conditions noted are these: dose microM 0.33-3.22.
The species entered for experiment [28] is Homo sapiens. The experiment can be described thus: Binding affinity to alpha-glucosidase (unknown origin) assessed as change in gibbs free energy at 298 K by Van't Hoff equation analysis.
For experiment [29], the species on record is Homo sapiens. The experiment can be described thus: Binding affinity to alpha-glucosidase (unknown origin) assessed as Stern-Volmer quenching constant at 310 K.
A short description of experiment [30]: Binding affinity to alpha-glcosidase (unknown origin) using p-NPG as substrate. On the set-up: species or system Homo sapiens.
For experiment [31], the species on record is Homo sapiens. The experiment can be described thus: Binding affinity to alpha-glucosidase (unknown origin) assessed as hydrophobic interactions by measuring change in enthalpy at 304 K by Van't Hoff equation analysis.
The species named for experiment [32] is Homo sapiens. The experiment can be described thus: Non-competitive inhibition of alpha-glucosidase (unknown origin) assessed as decrease in Vmax with constant Km at 0.0 to 2.5 uM using p-NPG as substrate by Lineweaver-Burk plot analysis. The settings on record: dose microM 0.0-2.5.
The species named for experiment [33] is Rattus norvegicus. The experiment can be described thus: Inhibition of alpha-glucosidase in rat everted intestinal sleeves assessed as reduction in glucose concentration within intestinal sleeves at 0.173 mM measured for 5 to 90 mins. The settings on record: Intestine, time min 5-90. It counts as tissue-based.
The species named for experiment [34] is Homo sapiens. In words: Binding affinity to alpha-glucosidase (unknown origin) assessed as enzyme complexation with compound at 2.5 uM by measuring mean width of enzyme by atomic force microscopy (reference value: 28.35 nm).

Here are results for two compounds from ChEMBL document CHEMBL4699496, “Exploring efficacy of natural-derived acetylphenol scaffold inhibitors for α-glucosidase: Synthesis, in vitro and in vivo biochemical studies” (Bioorg Med Chem Lett, 2020).

Calls of active or inactive are those of the source. The calls are words filed in the database; no cut-off is given here.

What is called IC50 is the midpoint of a concentration-inhibition curve. Consider `C[C@H]1O[C@H](O[C@H]2[C@H](O)[C@@H](O)[C@@H](O[C@H]3[C@H](O)[C@@H](O)C(O)O[C@@H]3CO)O[C@@H]2CO)[C@H](O)[C@@H](O)[C@@H]1N[C@H]1C=C(CO)[C@@H](O)[C@H](O)[C@H]1O` (some centres not stated) [ACARBOSE], for which the inhibition entry in the experiment filed under Rattus norvegicus [1], in the experiment listed under Rattus norvegicus [4], in the experiment listed under Rattus norvegicus [5] and in the experiment filed under Rattus norvegicus [6] was “Active” each time. Also, the result in the experiment listed under Mus musculus [2] and in the experiment filed under Mus musculus [3] was Active. For the same compound, the 50% inhibitory concentration (IC50) in experiment [7] came out at 57 µM.
By Ki is commonly meant the equilibrium dissociation constant of an inhibitor or competing ligand from its target. Read a low Ki as a stronger hold on the target. As for `CCCCCCCC(=O)c1cc(C)c(OC(=O)CI)cc1O`, the result in the experiment filed under Homo sapiens [8], in the experiment filed under Homo sapiens [16], in the experiment listed under Mus musculus [3] and in the experiment filed under Homo sapiens [23] was Active. The deltaG was -4.36 kcal/mol in the experiment listed under Homo sapiens [9], -4.29 kcal/mol in the experiment filed under Homo sapiens [11] and -4.23 kcal/mol in the experiment filed under Homo sapiens [28]. Moreover, the result in the experiment listed under Homo sapiens [10] and in the experiment listed under Homo sapiens [27] was inactive. The KSV in the experiment filed under Homo sapiens [12] was 1.95 10^4L/mol; in the experiment filed under Homo sapiens [18], 2.27 10^4L/mol; in the experiment filed under Homo sapiens [29], 1.64 10^4L/mol. Also, the deltaS in the experiment listed under Homo sapiens [13] came out at 45 J/mol/K. The Kq was 1.64 10^12L/mol/s in the experiment filed under Homo sapiens [14], 2.27 10^12L/mol/s in the experiment filed under Homo sapiens [19] and 1.95 10^12L/mol/s in the experiment filed under Homo sapiens [21]. Besides, the values for the Ka in the experiment filed under Homo sapiens [15], in the experiment listed under Homo sapiens [22] and in the experiment listed under Homo sapiens [24] were 1.39 10^4L/mol, 1.34 10^4L/mol and 1.3 10^4L/mol, respectively. The inhibition entry in the experiment filed under Rattus norvegicus [17], in the experiment listed under Rattus norvegicus [25], in the experiment filed under Rattus norvegicus [26], in the experiment filed under Homo sapiens [32] and in the experiment filed under Rattus norvegicus [33] was “Active” each time. The figures for the Activity in the experiment filed under Homo sapiens [20], in the experiment filed under Mus musculus [2] and in the experiment listed under Homo sapiens [34] were 0.75 nm, “Dose-dependent effect” and 47.5 nm, respectively. This compound also registered an inhibitory constant (Ki) in experiment [30] of 1.62 µM. The deltaH in the experiment filed under Homo sapiens [31] is -1.02 kcal/mol. The IC50 in experiment [7] came out at 1.69 µM.
